# Target: T1, human GPR119 (Homo sapiens, UniProt Q8TDV5)
# T1 construct: expression vector for human GPR119 cDNA (Acc. No. NP_848566); expressed in transfected cells; Min-6/hGPR119
# T1 sequence (Q8TDV5 1-335): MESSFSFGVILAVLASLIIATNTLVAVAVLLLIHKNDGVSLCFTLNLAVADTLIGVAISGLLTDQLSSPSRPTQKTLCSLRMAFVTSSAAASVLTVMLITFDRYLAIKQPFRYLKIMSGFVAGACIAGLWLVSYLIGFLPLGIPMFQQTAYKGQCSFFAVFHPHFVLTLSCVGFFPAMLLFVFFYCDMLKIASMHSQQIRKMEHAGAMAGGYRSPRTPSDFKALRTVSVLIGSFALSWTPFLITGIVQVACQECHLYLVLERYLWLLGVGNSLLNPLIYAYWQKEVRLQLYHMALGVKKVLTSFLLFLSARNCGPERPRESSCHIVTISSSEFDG
# Experiment: AlphaScreen cAMP assay in MIN6 cells stably transfected with human GPR119
# Format: cell-based
# Conditions: Min-6/hGPR119 cells, 45 min at room temperature
# How it was run: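 MIN6 cells stably expressing human GPR119, seeded 10000/well and grown 24 h, were exposed to compound in pH 7.4 buffer with 0.5 mM IBMX, 0.1% BSA and 1% DMSO for 45 min at room temperature. Intracellular cAMP then measured by AlphaScreen.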
row,SMILES,EC50
1,"Cc1noc(C2CCN(C(=O)c3ccc(-c4ncc(C(=O)N(C5CC5)C5CCN(C(=O)OC(C)(C)C)CC5)cn4)cc3F)C2)n1 (stereo not drawn) [Example 104, 4-[Cyclopropyl-(2-{3-fluoro-4-[3-(3-methyl-[1,2,4]oxadiazol-5-yl)-pyrrolidine-1-carbonyl]-phenyl}-pyrimidine-5-carbonyl)-amino]-piperidine-1-carboxylic acid tert-butyl ester]",0.18 µM
2,"COCC(C)N(C)C(=O)c1ccc(-c2ncc(C(=O)N(C3CC3)C3CCN(C(=O)OC(C)(C)C)CC3)cn2)cc1F (stereo not drawn) [Example 106, 4-[Cyclopropyl-(2-{3-fluoro-4-[(2-methoxy-1-methyl-ethyl)-methyl-carbamoyl]-phenyl}-pyrimidine-5-carbonyl)-amino]-piperidine-1-carboxylic acid tert-butyl ester]",0.253 µM
3,"COC(C)CN(C)C(=O)c1ccc(-c2ncc(C(=O)N(C3CC3)C3CCN(C(=O)OC(C)(C)C)CC3)cn2)cc1F (stereo not drawn) [Example 107, 4-[Cyclopropyl-(2-{3-fluoro-4-[(2-methoxy-propyl)-methyl-carbamoyl]-phenyl}-pyrimidine-5-carbonyl)-amino]-piperidine-1-carboxylic acid tert-butyl ester]",0.114 µM
4,"COC[C@@H]1CCCN1C(=O)c1ccc(-c2ncc(C(=O)N(C3CC3)C3CCN(C(=O)OC(C)(C)C)CC3)cn2)cc1F [Example 108, 4-(Cyclopropyl-{2-[3-fluoro-4-(2-methoxymethyl-pyrrolidine-1-carbonyl)-phenyl]-pyrimidine-5-carbonyl}-amino)-piperidine-1-carboxylic acid tert-butyl ester]",0.312 µM
5,"CC(C)(C)OC(=O)N1CCC(N(C(=O)c2cnc(-c3ccc(C(=O)Nc4cccc(CO)c4)c(F)c3)nc2)C2CC2)CC1 [Example 110, 4-(Cyclopropyl-{2-[3-fluoro-4-(3-hydroxymethyl-phenylcarbamoyl)-phenyl]-pyrimidine-5-carbonyl}-amino)-piperidine-1-carboxylic acid tert-butyl ester]",0.141 µM
6,"COC[C@H]1CCCN1C(=O)c1ccc(-c2ncc(C(=O)N(C3CC3)C3CCN(C(=O)OC(C)(C)C)CC3)cn2)cc1F [Example 114, 4-(Cyclopropyl-{2-[3-fluoro-4-(2-methoxymethyl-pyrrolidine-1-carbonyl)-phenyl]-pyrimidine-5-carbonyl}-amino)-piperidine-1-carboxylic acid tert-butyl ester]",0.378 µM
7,"CN(CC1CCOC1)C(=O)c1ccc(-c2ncc(C(=O)N(C3CC3)C3CCN(C(=O)OC(C)(C)C)CC3)cn2)cc1F (stereo not drawn) [Example 115, 4-[Cyclopropyl-(2-{3-fluoro-4-[methyl-(tetrahydro-furan-3-ylmethyl)-carbamoyl]-phenyl}-pyrimidine-5-carbonyl)-amino]-piperidine-1-carboxylic acid tert-butyl ester]",0.164 µM
8,"CC(C)(C)OC(=O)N1CCC(N(C(=O)c2cnc(-c3ccc(C(=O)N4CCCOCC4)c(F)c3)nc2)C2CC2)CC1 [Example 117, 4-(Cyclopropyl-{2-[3-fluoro-4-([1,4]oxazepane-4-carbonyl)-phenyl]-pyrimidine-5-carbonyl}-amino)-piperidine-1-carboxylic acid tert-butyl ester]",0.275 µM
9,"CO[C@@H]1CCN(C(=O)c2ccc(-c3ncc(C(=O)N(C4CC4)C4CCN(C(=O)OC(C)(C)C)CC4)cn3)cc2F)C1 [Example 118, 4-(Cyclopropyl-{2-[3-fluoro-4-(3-methoxy-pyrrolidine-1-carbonyl)-phenyl]-pyrimidine-5-carbonyl}-amino)-piperidine-1-carboxylic acid tert-butyl ester]",0.129 µM
10,"COc1ccc(NC(=O)c2ccc(-c3ncc(C(=O)N(C4CC4)C4CCN(C(=O)OC(C)(C)C)CC4)cn3)cc2F)c(OC)c1 [Example 120, 4-(Cyclopropyl-{2-[4-(2,4-dimethoxy-phenylcarbamoyl)-3-fluoro-phenyl]-pyrimidine-5-carbonyl}-amino)-piperidine-1-carboxylic acid tert-butyl ester]",0.212 µM
11,"CC(C)(C)OC(=O)N1CCC(N(C(=O)c2cnc(-c3ccc(C(=O)Nc4ccc(CO)cc4)c(F)c3)nc2)C2CC2)CC1 [Example 121, 4-(Cyclopropyl-{2-[3-fluoro-4-(4-hydroxymethyl-phenylcarbamoyl)-phenyl]-pyrimidine-5-carbonyl}-amino)-piperidine-1-carboxylic acid tert-butyl ester]",0.18 µM
12,"CN(CCOCC1CC1)C(=O)c1ccc(-c2ncc(C(=O)N(C3CC3)C3CCN(C(=O)OC(C)(C)C)CC3)cn2)cc1F [Example 124, 4-[Cyclopropyl-(2-{4-[(2-cyclopropylmethoxy-ethyl)-methyl-carbamoyl]-3-fluoro-phenyl}-pyrimidine-5-carbonyl)-amino]-piperidine-1-carboxylic acid tert-butyl ester]",0.102 µM
13,"CC(C)(C)OC(=O)N1CCC(N(C(=O)c2cnc(-c3ccc(C(=O)N4CCC[C@H]4C#N)c(F)c3)nc2)C2CC2)CC1 [Example 125, 4-({2-[4-(2-Cyano-pyrrolidine-1-carbonyl)-3-fluoro-phenyl]-pyrimidine-5-carbonyl}-cyclopropyl-amino)-piperidine-1-carboxylic acid tert-butyl ester]",0.18 µM

# More lines, now with the values ahead:
row,EC50,SMILES
1,0.144 µM,"CC(C)(C)OC(=O)N1CCC(N(C(=O)c2cnc(-c3ccc(C(=O)NCc4ccccn4)c(F)c3)nc2)C2CC2)CC1 [Example 105, 4-[Cyclopropyl-(2-{3-fluoro-4-[(pyridin-2-ylmethyl)-carbamoyl]-phenyl}-pyrimidine-5-carbonyl)-amino]-piperidine-1-carboxylic acid tert-butyl ester]"
2,0.085 µM,"CC(C)(C)OC(=O)N1CCC(N(C(=O)c2cnc(-c3ccc(C(=O)NCC#N)c(F)c3)nc2)C2CC2)CC1 [Example 109, 4-({2-[4-(Cyanomethyl-carbamoyl)-3-fluoro-phenyl]-pyrimidine-5-carbonyl}-cyclopropyl-amino)-piperidine-1-carboxylic acid tert-butyl ester]"
3,0.064 µM,"Cc1cnc(CNC(=O)c2ccc(-c3ncc(C(=O)N(C4CC4)C4CCN(C(=O)OC(C)(C)C)CC4)cn3)cc2F)s1 [Example 111, 4-[Cyclopropyl-(2-{3-fluoro-4-[(5-methyl-thiazol-2-ylmethyl)-carbamoyl]-phenyl}-pyrimidine-5-carbonyl)-amino]-piperidine-1-carboxylic acid tert-butyl ester]"
4,0.22 µM,"CC(C)(C)OC(=O)N1CCC(N(C(=O)c2cnc(-c3ccc(C(=O)Nc4ccn[nH]4)c(F)c3)nc2)C2CC2)CC1 [Example 112, 4-(Cyclopropyl-{2-[3-fluoro-4-(2H-pyrazol-3-ylcarbamoyl)-phenyl]-pyrimidine-5-carbonyl}-amino)-piperidine-1-carboxylic acid tert-butyl ester]"
5,0.597 µM,"CN(CCO)C(=O)c1ccc(-c2ncc(C(=O)N(C3CC3)C3CCN(C(=O)OC(C)(C)C)CC3)cn2)cc1F [Example 113, 4-[Cyclopropyl-(2-{3-fluoro-4-[(2-hydroxy-ethyl)-methyl-carbamoyl]-phenyl}-pyrimidine-5-carbonyl)-amino]-piperidine-1-carboxylic acid tert-butyl ester]"
6,0.445 µM,"CC(C)(C)OC(=O)N1CCC(N(C(=O)c2cnc(-c3ccc(C(=O)Nc4ccc(O)cc4)c(F)c3)nc2)C2CC2)CC1 [Example 116, 4-(Cyclopropyl-{2-[3-fluoro-4-(4-hydroxy-phenylcarbamoyl)-phenyl]-pyrimidine-5-carbonyl}-amino)-piperidine-1-carboxylic acid tert-butyl ester]"
7,0.147 µM,"Cc1nc(CNC(=O)c2ccc(-c3ncc(C(=O)N(C4CC4)C4CCN(C(=O)OC(C)(C)C)CC4)cn3)cc2F)cs1 [Example 119, 4-[Cyclopropyl-(2-{3-fluoro-4-[(2-methyl-thiazol-4-ylmethyl)-carbamoyl]-phenyl}-pyrimidine-5-carbonyl)-amino]-piperidine-1-carboxylic acid tert-butyl ester]"
8,0.055 µM,"COc1ccc(NC(=O)c2ccc(-c3ncc(C(=O)N(C4CC4)C4CCN(C(=O)OC(C)(C)C)CC4)cn3)cc2F)cn1 [Example 122, 4-(Cyclopropyl-{2-[3-fluoro-4-(6-methoxy-pyridin-3-ylcarbamoyl)-phenyl]-pyrimidine-5-carbonyl}-amino)-piperidine-1-carboxylic acid tert-butyl ester]"
9,0.637 µM,"CC(C)(C)OC(=O)N1CCC(N(C(=O)c2cnc(-c3ccc(C(=O)NCCS(C)(=O)=O)c(F)c3)nc2)C2CC2)CC1 [Example 123, 4-(Cyclopropyl-{2-[3-fluoro-4-(2-methanesulfonyl-ethylcarbamoyl)-phenyl]-pyrimidine-5-carbonyl}-amino)-piperidine-1-carboxylic acid tert-butyl ester]"
10,0.099 µM,"CC(C)(C)OC(=O)N1CCC(N(C(=O)c2cnc(-c3ccc(C(=O)NCc4ccncc4)c(F)c3)nc2)C2CC2)CC1 [Example 126, 4-[Cyclopropyl-(2-{3-fluoro-4-[(pyridin-4-ylmethyl)-carbamoyl]-phenyl}-pyrimidine-5-carbonyl)-amino]-piperidine-1-carboxylic acid tert-butyl ester]"
11,0.108 µM,"CN(Cc1cccnc1)C(=O)c1ccc(-c2ncc(C(=O)N(C3CC3)C3CCN(C(=O)OC(C)(C)C)CC3)cn2)cc1F [Example 127, 4-(Cyclopropyl-{2-[3-fluoro-4-(methyl-pyridin-3-ylmethyl-carbamoyl)-phenyl]-pyrimidine-5-carbonyl}-amino)-piperidine-1-carboxylic acid tert-butyl ester]"

# Reference: patent US20140045823A1 (Neurocrine Biosciences, Inc., priority 2012, published 2014)
